Test results: patent US10800791B2, “Triazole ACC inhibitors and uses thereof” (Gilead Apollo, LLC, priority 2015, dated 2020)
In brackets after ≈: the same amount, converted by molar mass. Where two headings read alike, the source gives them in different places.

How the values were obtained:
Rhizoctonia solani (Rs) = assay: Growth inhibition assay of fungal pathogens, Rs; format: cell-based; settings: 48 h
Procedure: Compounds of the present invention were evaluated in a growth inhibition assay to determine the ability to control the growth of fungal pathogens, such as Botrtyis cinerea (Bc), Collectotrichum graminicola (Cg), Diplodia maydis (Dm), Fusarium moniliforme (Fm), Fusarium virguliforme (Fv), Phytophthora capsici (Pc), Rhizoctonia solani (Rs), and Septoria tritici (St).
Compounds to be tested were dissolved in DMSO at 2.5 mg/ml to produce compound stock solutions (“stocks”). Stocks were diluted with DMSO by a five-fold dilution in a 96-well stock plate, and two sets of final concentrations of 50, 10, and 2 ppm or 2, 0.4, and 0.08 ppm were obtained in vitro. A set of positive controls was also prepared, with various concentrations of Soraphen (2, 0.4, and 0.08 ppm), Metalaxyl (1.1, 0.22, and 0.04 ppm), and Metconazole (2, 0.4, and 0.08 ppm or 0.2, 0.04, and 0.008 ppm) after the five-fold dilutions. Negative controls on each plate included 2% DMSO, water, and a blank (media+2% DMSO).
Fungal spores were isolated from previously sub-cultured plates of Botrtyis cinerea (Bc), Collectotrichum graminicola (Cg), Diplodia maydis (Dm), Fusarium moniliforme (Fm), Fusarium virguliforme (Fv), Phytophthora capsici (Pc), and Septoria tritici (St). The isolated spores were diluted to individual concentrations with a 17% V8 liquid media. For Rhizoctonia solani (Rs) and Pythium irregulare, 1.5 mm mycelial plugs were used in place of spores and/4 Potato Dextrose Broth (PDB) was used for dilution. The spore concentrations and plug sizes were based on growth curves generated at 48 hours for each pathogen.
In a second 96-well plate, the spores or mycelial plugs, media, diluted compound solutions, and controls were combined. Once the compound was added, a true final concentration of compound in each well was measured by an OD600 reading, which adjusted for any compound precipitation that might have occurred in the well. Plate readings were repeated at both 24 and 48 hours. The blank negative control was used as a background subtraction. Additional visual ratings were performed at both 24 and 48 hours for checking on precipitation and confirming efficacy. Visual and OD600 ratings of the compounds at 48 hours were compared to the 2% DMSO negative control, and the percent of pathogen growth inhibition was determined based on those values.

human (hACC2) = human (hACC2) (Homo sapiens, UniProt O00763); assay: In vitro ACC inhibition assay (ADP-Glo), hACC2; format: biochemical; settings: 5 nM ACC2, 20 μM ATP, 20 μM acetyl-CoA
Sequence of human (hACC2) (O00763 whole entry): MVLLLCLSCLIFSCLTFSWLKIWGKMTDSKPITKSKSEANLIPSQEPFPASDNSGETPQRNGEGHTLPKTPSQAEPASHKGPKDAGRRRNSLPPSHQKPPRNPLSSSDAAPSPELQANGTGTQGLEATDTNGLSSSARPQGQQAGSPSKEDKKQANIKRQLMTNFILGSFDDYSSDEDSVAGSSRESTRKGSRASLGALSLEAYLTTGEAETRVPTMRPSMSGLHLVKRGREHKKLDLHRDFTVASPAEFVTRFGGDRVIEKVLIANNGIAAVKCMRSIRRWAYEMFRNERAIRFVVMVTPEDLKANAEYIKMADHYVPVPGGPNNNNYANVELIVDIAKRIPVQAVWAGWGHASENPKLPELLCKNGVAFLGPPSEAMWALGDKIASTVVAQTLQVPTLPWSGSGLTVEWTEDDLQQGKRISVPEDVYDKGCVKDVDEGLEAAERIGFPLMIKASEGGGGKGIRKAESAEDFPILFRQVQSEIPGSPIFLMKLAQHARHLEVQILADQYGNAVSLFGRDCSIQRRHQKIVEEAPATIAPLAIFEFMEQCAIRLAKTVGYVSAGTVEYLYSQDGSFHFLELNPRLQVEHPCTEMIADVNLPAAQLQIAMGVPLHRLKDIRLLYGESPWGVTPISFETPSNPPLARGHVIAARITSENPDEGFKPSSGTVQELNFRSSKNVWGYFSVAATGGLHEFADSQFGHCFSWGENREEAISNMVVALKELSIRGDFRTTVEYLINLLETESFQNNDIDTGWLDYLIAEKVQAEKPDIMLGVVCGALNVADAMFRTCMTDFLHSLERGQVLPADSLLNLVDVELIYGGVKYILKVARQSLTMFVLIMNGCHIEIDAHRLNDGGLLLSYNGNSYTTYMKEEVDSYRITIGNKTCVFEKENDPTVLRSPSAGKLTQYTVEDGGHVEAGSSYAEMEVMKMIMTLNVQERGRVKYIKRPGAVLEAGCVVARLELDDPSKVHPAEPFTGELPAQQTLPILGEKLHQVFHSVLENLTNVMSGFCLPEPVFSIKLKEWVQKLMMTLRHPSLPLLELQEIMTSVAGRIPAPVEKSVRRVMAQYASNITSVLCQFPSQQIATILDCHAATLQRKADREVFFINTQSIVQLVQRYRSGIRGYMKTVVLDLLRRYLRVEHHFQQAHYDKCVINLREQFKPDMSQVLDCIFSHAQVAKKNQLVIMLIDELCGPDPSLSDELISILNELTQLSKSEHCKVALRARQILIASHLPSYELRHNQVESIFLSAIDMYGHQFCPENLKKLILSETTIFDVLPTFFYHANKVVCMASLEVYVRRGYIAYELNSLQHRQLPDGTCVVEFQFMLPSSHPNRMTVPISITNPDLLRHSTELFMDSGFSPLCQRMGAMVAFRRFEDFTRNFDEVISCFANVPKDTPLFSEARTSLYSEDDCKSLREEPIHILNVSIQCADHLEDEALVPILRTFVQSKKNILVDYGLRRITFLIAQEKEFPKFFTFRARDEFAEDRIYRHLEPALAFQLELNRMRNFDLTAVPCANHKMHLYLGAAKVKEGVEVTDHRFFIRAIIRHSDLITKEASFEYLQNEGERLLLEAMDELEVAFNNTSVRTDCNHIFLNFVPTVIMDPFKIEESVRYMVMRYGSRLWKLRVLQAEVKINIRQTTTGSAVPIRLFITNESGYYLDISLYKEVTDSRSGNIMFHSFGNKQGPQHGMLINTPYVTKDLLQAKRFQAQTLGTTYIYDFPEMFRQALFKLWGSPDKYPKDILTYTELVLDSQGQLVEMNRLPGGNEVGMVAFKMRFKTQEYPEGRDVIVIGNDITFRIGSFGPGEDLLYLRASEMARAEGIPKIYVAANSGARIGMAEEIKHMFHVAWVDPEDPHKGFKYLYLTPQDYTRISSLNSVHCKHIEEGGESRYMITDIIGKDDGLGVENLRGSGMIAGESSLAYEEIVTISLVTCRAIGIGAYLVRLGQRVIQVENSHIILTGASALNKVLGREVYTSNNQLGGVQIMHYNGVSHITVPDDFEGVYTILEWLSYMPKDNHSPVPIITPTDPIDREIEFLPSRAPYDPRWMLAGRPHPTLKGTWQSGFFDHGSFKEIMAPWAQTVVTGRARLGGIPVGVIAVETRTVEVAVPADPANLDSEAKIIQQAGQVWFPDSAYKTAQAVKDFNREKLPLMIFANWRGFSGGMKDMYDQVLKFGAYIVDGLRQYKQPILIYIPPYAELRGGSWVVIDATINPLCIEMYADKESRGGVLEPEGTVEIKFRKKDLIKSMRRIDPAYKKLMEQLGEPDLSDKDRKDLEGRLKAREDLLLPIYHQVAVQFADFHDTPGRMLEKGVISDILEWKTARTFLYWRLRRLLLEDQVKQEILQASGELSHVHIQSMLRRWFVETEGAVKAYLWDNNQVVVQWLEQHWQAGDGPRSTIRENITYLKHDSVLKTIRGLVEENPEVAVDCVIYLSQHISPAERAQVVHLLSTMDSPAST
Procedure: The detailed procedure is as follows. […] 10 μL ADP glo reagent was added. […] 20 μL kinase detection reagent was added.

[1] = mycelial plugs, growth inhibition at 48 hours vs 2% DMSO control, read-out: Concentration at 90% Inhibition Rs
[2] = mycelial plugs, growth inhibition vs 2% DMSO control at 48 hours, read-out: Concentration at 90% Inhibition Rs
[3] = read-out: Concentration at 90% Inhibition Rs, Rhizoctonia solani, mycelial plugs, growth inhibition at 48 hours vs 2% DMSO control
[4] = read-out: Concentration at 90% Inhibition Rs, Rhizoctonia solani, mycelial plugs, growth inhibition vs 2% DMSO control at 48 hours

In the case of COc1ccc(F)cc1[C@H](Cn1c(=O)n([C@@H](C)C(=O)N2CCCC2)c(=O)c2c(C)c(-n3nccn3)sc21)OC(C)C [Compound I-39, 1-((R)-2-(5-fluoro-2-methoxyphenyl)-2-isopropoxyethyl)-5-methyl-3-((S)-1-oxo-1-(pyrrolidin-1-yl)propan-2-yl)-6-(2H-1,2,3-triazol-2-yl)thieno[2,3-d]pyrimidine-2,4(1H,3H)-dione], the IC90 (Rhizoctonia solani (Rs); [1]) is reported as 0.4 µg/mL (≈ 0.684 µM), the IC90 (Rhizoctonia solani (Rs); [2]) is reported as 0.4 µg/mL (≈ 0.684 µM) and the IC50 (human (hACC2); Table 2a) is reported as 5 to 10 nM. It also gave an IC50 (human (hACC2); Table 2b, additional results) of 1 to 5 nM.
COc1ccc(F)cc1[C@H](Cn1c(=O)n(C(C)C(=O)N2CCCC2)c(=O)c2c(C)c(-n3nccn3)sc21)OC(C)C (stereo partly drawn) [Compound I-40, 1-((R)-2-(5-fluoro-2-methoxyphenyl)-2-isopropoxyethyl)-5-methyl-3-(1-oxo-1-(pyrrolidin-1-yl)propan-2-yl)-6-(2H-1,2,3-triazol-2-yl)thieno[2,3-d]pyrimidine-2,4(1H,3H)-dione] was tested, and the IC90 (Rhizoctonia solani (Rs); [1]) was 0.4 µg/mL (≈ 0.684 µM), the IC90 (Rhizoctonia solani (Rs); [2]) was 0.08 µg/mL (≈ 0.137 µM) and the IC50 (human (hACC2); Table 2a) was 5 to 10 nM. It also gave an IC50 (human (hACC2); Table 2b, additional results) of 5 to 10 nM.
Work on COc1ccc(F)cc1[C@H](Cn1c(=O)n(C(C)(C)C(=O)NC(C)C)c(=O)c2c(C)c(-n3nccn3)sc21)OCC(C)(C)O [Compound I-57, (R)-2-(1-(2-(5-fluoro-2-methoxyphenyl)-2-(2-hydroxy-2-methylpropoxy)ethyl)-5-methyl-2,4-dioxo-6-(2H-1,2,3-triazol-2-yl)-1,4-dihydro-thieno[2,3-d]pyrimidin-3(2H)-yl)-N-isopropyl-2-methylpropanamide] yielded an IC90 (Rhizoctonia solani (Rs); [3]) of 0.4 µg/mL (≈ 0.649 µM), an IC90 (Rhizoctonia solani (Rs); [4]) of 0.4 µg/mL (≈ 0.649 µM) and an IC50 (human (hACC2); Table 2a) of 10 to 40 nM. It also gave an IC50 (human (hACC2); Table 2b, additional results) of 10 to 40 nM.
For COc1ccc(F)cc1[C@H](Cn1c(=O)n(C(C)(C)C(=O)N2CCCC2)c(=O)c2c(C)c(-n3nccn3)sc21)OCC(C)(C)O [Compound I-58, (R)-1-(2-(5-fluoro-2-methoxyphenyl)-2-(2-hydroxy-2-methylpropoxy)ethyl)-5-methyl-3-(2-methyl-1-oxo-1-(pyrrolidin-1-yl)propan-2-yl)-6-(2H-1,2,3-triazol-2-yl)thieno[2,3-d]pyrimidine-2,4(1H,3H)-dione], the IC90 (Rhizoctonia solani (Rs); [1]) was 0.4 µg/mL (≈ 0.636 µM), the IC90 (Rhizoctonia solani (Rs); [2]) was 0.4 µg/mL (≈ 0.636 µM) and the IC50 (human (hACC2); Table 2a) was 10 to 40 nM. It also gave an IC50 (human (hACC2); Table 2b, additional results) of 10 to 40 nM.
In the case of COCCO[C@@H](Cn1c(=O)n(C(C)(C)C(=O)NC(C)C)c(=O)c2c(C)c(-n3nccn3)sc21)c1cc(F)ccc1OC [Compound I-59, (R)-2-(1-(2-(5-fluoro-2-methoxyphenyl)-2-(2-methoxy-ethoxy)ethyl)-5-methyl-2,4-dioxo-6-(2H-1,2,3-triazol-2-yl)-1,4-dihydro-thieno[2,3-d]pyrimidin-3(2H)-yl)-N-isopropyl-2-methylpropanamide], the IC90 (Rhizoctonia solani (Rs); [3]) is reported as 0.4 µg/mL (≈ 0.664 µM), the IC90 (Rhizoctonia solani (Rs); [4]) is reported as 0.4 µg/mL (≈ 0.664 µM) and the IC50 (human (hACC2); Table 2a) is reported as 5 to 10 nM. The IC50 (human (hACC2); Table 2b, additional results) was 5 to 10 nM.
With COCCO[C@@H](Cn1c(=O)n(C(C)(C)C(=O)N2CCCC2)c(=O)c2c(C)c(-n3nccn3)sc21)c1cc(F)ccc1OC [Compound I-60, (R)-1-(2-(5-fluoro-2-methoxyphenyl)-2-(2-methoxy-ethoxy)ethyl)-5-methyl-3-(2-methyl-1-oxo-1-(pyrrolidin-1-yl)propan-2-yl)-6-(2H-1,2,3-triazol-2-yl)thieno[2,3-d]pyrimidine-2,4(1H,3H)-dione] the IC90 (Rhizoctonia solani (Rs); [1]) was > 50 µg/mL, the IC90 (Rhizoctonia solani (Rs); [2]) was > 50 µg/mL and the IC50 (human (hACC2); Table 2a) was 10 to 40 nM. The IC50 (human (hACC2); Table 2b, additional results) was 10 to 40 nM.
Molecule COCCOc1ccc(F)cc1[C@H](Cn1c(=O)n(C(C)(C)C(=O)NC(C)C)c(=O)c2c(C)c(-n3nccn3)sc21)OC1CCOCC1 [Compound I-61, (R)-2-(1-(2-(5-fluoro-2-(2-methoxyethoxy)phenyl)-2-((tetrahydro-2H-pyran-4-yl)oxy)ethyl)-5-methyl-2,4-dioxo-6-(2H-1,2,3-triazol-2-yl)-1,4-dihydrothieno[2,3-d]pyrimidin-3(2H)-yl)-N-isopropyl-2-methylpropanamide] has an IC90 (Rhizoctonia solani (Rs); [1]) of 0.08 µg/mL (≈ 0.119 µM), an IC90 (Rhizoctonia solani (Rs); [2]) of 0.08 µg/mL (≈ 0.119 µM) and an IC50 (human (hACC2); Table 2a) of 5 to 10 nM. It also gave an IC50 (human (hACC2); Table 2b, additional results) of 5 to 10 nM.
